Structures can show the parent of a compound that is named as a salt.
Biological target: T1, MT1-MMP (Homo sapiens, UniProt P50281)
T1 construct: initiator Met (ATG start codon from NdeI site) (N); made in house
Assay: MT1-MMP fluorogenic substrate inhibition assay
Type: biochemical
Conditions: mean ± SEM of three independent experiments
Description: The inhibitory activities of compounds of formula I on MT1-MMP, MMP1 (collagenase 1) and MMP2 (gelatinase A) can be determined as follows:
Stock solutions of substrate (MCA-Pro-Leu-Gly-Leu-Dpa-Ala-Arg-NH2 (SEQ ID NO: 1), C. G. Knight, et al, FEBS lett., 296, 263-266, (1992)), are prepared in 100% DMSO at a concentration 1.0 mM.
Stock solutions of inhibitors are prepared in 100% DMSO. The inhibitor is diluted into the assays from a solution in 100% DMSO, and controls substitute an equal volume of DMSO so that the final DMSO concentration from inhibitor and substrate dilutions in all assays is 6.0%. Assays are performed in assay buffer (150 mM NaCl, 10 mM CaCl2, 50 mM Tris-Cl pH7.5, 0.05% Brij-35) containing 6.0% DMSO once the substrate and inhibitor are diluted into it. […] The fluorescence changes are monitored using an excitation wavelength of 320 nm and an emission wavelength of 340 nm. […] The reaction mixture is preincubated with the inhibitor for 30 min, the reaction is started by the addition of MMP enzyme and the fluorescence intensity is measured for 10 min. […]
Expression and Purification: The subcloned CD-MT1-MMP is used to transfect E. coli strain BL21[DE3] (Hanahan, D. J. Mol. Biol. 1983; 166(4):557-80) and expressed as insoluble inclusion body materials. […] Fractions of 1 ml are collected and […] aliquots are analyzed by immunoblotting. […]

For `CN(C)c1ccc(CN(CC(=O)NO)S(=O)(=O)c2ccc(OCC3CC3)cc2)cc1` [Example 2, 2-[(4-Cyclopropylmethoxy-benzenesulfonyl)-(4-dimethylamino-benzyl-amino]-N-hydroxy-acetamide HCl salt], the IC50 was 4.67 ± 0.17 nM.

— patent publication US7659293B2, “α-Amino-N-hydroxy-acetamide derivatives” (Novartis AG, priority 2001, dated 2010)
